Experimental data: patent US11028138B2, “Compositions and methods for using actin-based peptides to modulate cellular bioactivity and cellular susceptibility to intracellular pathogens” (priority 2016, dated 2021)

What was measured:
HIV-1 [1] = details: pretreatment; cited from earlier work
HIV-1 [2] = details: dosages that did not affect CD4 T cell activation or induce cytotoxicity; cited from earlier work
Influenza A virus (IAV) [3] = details: A549 cells; read-out: IC50, reduction of viral replication; cited from earlier work
Influenza A virus (IAV) [4] = details: vs solvent-treated control mice; cited from earlier work
[5] = test system: Human T lymphoblast cell A3.01; test: N10-mediated cell killing, Propidium iodide and FITC-Annexin V staining, flow cytometry; type: cell-based; details: 10 uM; A3.01 cells
Experimental: FIG. 8: Human T lymphoblast cell A3.01 was treated with N10 (10 uM). N10-mediated cell killing was monitored by staining of dead cells with Propidium iodide and FITC-labelled Annexin V. Cells were analyzed by flow cytometry.
N10-mediated cell killing was monitored by staining of dead cells with Propidium iodide and FITC-labelled Annexin V. Cells were analyzed by flow cytometry.
• 5) Culture human A3.01 cells at 5×10^5 cells/ml • 6) Add peptide N10 to the cell to a final concentration of 10 uM • 7) Continue to culture cell at 37° C., maintain cell density below 1×10^6 cells/ml 8) Take out 1-2×10^5 cells, put on ice, add P.I., and FITC—Annexin V as recommended by the reagent manufacturer for dead/apoptotic cell staining. • 9) Analyzed the staining by flow cytometer.

HIV-1 [6] = details: Rev-CEM-GFP; 2 h infection; 2 days post infection; viable (low PI) cells; HIV alone 0.79% (N7 experiment), 1.95% (N9 experiment)
Experimental: (A) The HIV Rev-dependent indicator cell, Rev-CEM-GFP, was not infected (+Cell) or infected with HIV-1 (+HIV), or pre-treated with peptide N7, and then infected with HIV-1 (N7+HIV). Following infection for 2 hours, cells were washed to remove the virus and the peptide. Viral replication was measured at 2 days post infection by flow cytometry. […] PI, propidium iodide, was added before flow cytometry for cytotoxicity control. GFP+ cells were counted only when the cells are viable (low PI staining). (B) Effects of peptide N9 were similarly measured.
The HIV Rev-dependent indicator cell, Rev-CEM-GFP, was not infected (+Cell) or infected with HIV-1 (+HIV), or pre-treated with peptide N7, and then infected with HIV-1 (N7+HIV). Following infection for 2 hours, cells were washed to remove the virus and the peptide. Viral replication was measured at 2 days post infection by flow cytometry.
PI, propidium iodide, was added before flow cytometry for cytotoxicity control. GFP+ cells were counted only when the cells are viable (low PI staining).

HIV [7] = test: HIV DNA synthesis, 2-LTR circles and DNA integration in CEM-SS T cells and blood resting CD4 T cells; type: cell-based; details: for HIV DNA synthesis / HIV nuclear migration (2-LTR circles): peptide during 2 h infection; for HIV DNA integration: resting CD4 T cells, no T cell activation
Experimental: FIG. 6: Peptide N7 and N9 enhance HIV DNA synthesis, nuclear migration, and integration. (A) CEM-SS T cells were treated with N7 during HV infection for 2 hours, washed, and then analyzed for viral DNA synthesis and 2-LTR circles, a marker for HIV nuclear migration. (B) Blood resting CD4 T cells were similar infected, washed, and cultured without T cell activation. Viral DNA synthesis and DNA integration were analyzed.
CEM-SS T cells were treated with N7 during HV infection for 2 hours, washed, and then analyzed for viral DNA synthesis and 2-LTR circles, a marker for HIV nuclear migration. Blood resting CD4 T cells were similar infected, washed, and cultured without T cell activation. Viral DNA synthesis and DNA integration were analyzed.

actin = test: Actin polymerization and depolymerization by FITC-phalloidin staining in resting CD4 T cells; type: cell-based
Experimental: (§1) FIG. 5: Peptide N7 and N9 modulate cell signal transduction and chemotactic cofilin and actin activity. (A) Resting memory CD4 T cells were treated with N7 for a time course, cofilin phosphorylation was measured by Western Blot. Total cofilin and GAPDH was also measured for loading control. (B) Resting CD4 T cells were treated with N9, and actin polmerization and depolymerization were measured by FITC-phalloidin staining.
(§2) Resting memory CD4 T cells were treated with N7 for a time course, and cofilin phosphorylation was measured by Western Blot. Total cofilin and GAPDH was also measured for loading control (FIG. 5A). Resting CD4 T cells were treated with N9, and actin polmerization and depolymerization were measured by FITC-phalloidin staining (FIG. 5B).

HIV [8] = test: HIV infection of resting CD4 T cells, viral p24 release; type: cell-based
Experimental: FIG. 7: Peptide N9 promotes HIV infection of resting CD4 T cells. Resting CD4 T cells were treated with N9, and then infected with HIV for 2 hours. Following infection, cells were washed, and culture in the absence of T cell activation and N9. Viral p24 release was measured. As controls, cells were culture with the addition of IL-7 (daily addition), or with a scrambled peptide, or only in the culture medium.
The ability of N9 to stimulate HIV infection of blood resting CD4 T cells was also tested. Resting CD4 T cells are relatively resistant to HIV infection. The lack of activity in the cortical actin limits viral early steps in the infection of resting T cells (Yoder et aI., 2008).

surface CD4 receptor = test: Surface receptor staining and flow cytometry after peptide stimulation (CD4); type: cell-based, human; details: T cells exposed to peptide, 10 uM, 5 to 120 min
Experimental: (§3) FIG. 4: Up-regulation of cell surface receptors by N7. CEM-SS T cells or blood resting CD4 T cells were stimulated with peptide N7 for a time course. Effects on surface CD4, CXCR4 density were measured by anti-CD4 or anti-CXCR4, followed by flow cytometry.
(§4) • 1) Culture human CEM-SS T cells at 5×10^5 cells/ml • 2) Add peptide N7 to the cell to a final concentration of 10 uM at various times from 5 min to 120 min (e. g. 5, 10, 15, 30, 45, 60, 120 min). • 3) Take out 1-2×10^5 cells, put on ice, perform routine surface staining using FITC-, PE- or PE-cy5-labelled specific antibodies against cell receptors as recommended by the reagent manufacturer for cell surface staining. • 4) Analyzed the staining by flow cytometer.

surface CXCR4 receptors = test: Surface receptor staining and flow cytometry after peptide stimulation (CXCR4); type: cell-based, human; details: T cells exposed to peptide, 10 uM, 5 to 120 min
Experimental: as §3, §4

cofilin = test: Cofilin phosphorylation by Western Blot in resting memory CD4 T cells; type: cell-based; details: time course
Experimental: as §1, §2

Compound: C=C1[C@@H](C)[C@H]2[C@H](Cc3ccccc3)NC(=O)[C@]23[C@H](OC(C)=O)/C=C/[C@@](C)(O)C(=O)[C@@H](C)C/C=C/[C@H]3[C@@H]1O [CCD, cytochalasin D]
- Reduction of nuclear accumulation of late RT products (HIV-1 [1]): 25 fold

Compound: O=C1CSC(c2cccc(Br)c2)N1c1cc(Cl)ccc1O (stereo not shown) [CK-548]
- HIV-1 replication (HIV-1 [2]): dramatically reduced

Compound: CCN(CC)CCCC(C)Nc1nc(C)cc(Nc2ccc3nc(C)cc(N)c3c2)n1 (stereo not shown) [NSC23766]
- IC50 (Influenza A virus (IAV) [3]): 22 µM
- Body weights (Influenza A virus (IAV) [4]): increased
- Survivability (Influenza A virus (IAV) [4]): higher
- Titer of IAV in lung tissue (Influenza A virus (IAV) [4]): reduce titer

Compound: RRRRRRRR(G/A)0-20AGRDLTDYLMKILTERGYSF [Peptide N10]
- Cell killing [5]: killing of T cells

Compound: RRRRRRRR(G/A)0-20HTVRIYEGYALRHAILRLDL [Peptide N9]
- HIV infection, percentage of GFP+ cells (HIV-1 [6]): 14.07%
- HIV DNA synthesis (HIV [7]): enhance
- HIV nuclear migration (2-LTR circles) (HIV [7]): enhance
- HIV DNA integration (HIV [7]): enhance
- Actin polymerization/depolymerization (actin): modulate
- Stimulation of viral infection compared with IL-7 (administered daily) (HIV [8]; early time): more potent
- HIV infection of resting T cells (p24 release) (HIV [8]; single-dosage treatment prior to infection, no T cell activation or cytokine stimulation): drastically stimulated

Compound: RRRRRRRR(G/A)0-20QIMFETENTPAMYVAIQAVL [Peptide N7]
- Surface CD4 receptor density (surface CD4 receptor): moderate up-regulation
- HIV infection, percentage of GFP+ cells (HIV-1 [6]): 15.5%
- HIV DNA synthesis (HIV [7]): enhance
- HIV nuclear migration (2-LTR circles) (HIV [7]): enhance
- HIV DNA integration (HIV [7]): enhance
- Actin polymerization/depolymerization (actin): actin depolymerization
- Surface CXCR4 receptor density (surface CXCR4 receptors): drastically up-regulate
- Cofilin activation (cofilin): briefly triggers cofilin activation
